The target of assay [1] is T1, recombinant BACE1 protein (Homo sapiens, UniProt P56817).
T1 construct: recombinant BACE1 protein in a final concentration of 1 μg/ml
In words: BACE1 biochemical FRET based assay - Method 1. The settings on record: BACE1, 120 minutes at room temperature, pH 5.0; read-out: Biochemical FRET based assay - Method 1 pIC50 (converted). From the text:
(§1) This assay is a Fluorescence Resonance Energy Transfer Assay (FRET) based assay. The substrate for this assay is an APP derived 13 amino acids peptide that contains the ‘Swedish’ Lys-Met/Asn-Leu mutation of the amyloid precursor protein (APP) beta-secretase cleavage site. This substrate also contains two fluorophores: (7-methoxycoumarin-4-yl) acetic acid (Mca) is a fluorescent donor with excitation wavelength at 320 nm and emission at 405 nm and 2,4-Dinitrophenyl (Dnp) is a proprietary quencher acceptor. […] Upon cleavage by BACE1, the fluorophore Mca is separated from the quenching group Dnp, restoring the full fluorescence yield of the donor. The increase in fluorescence is linearly related to the rate of proteolysis.
Briefly in a 384-well format recombinant BACE1 protein in a final concentration of 1 μg/ml is incubated for 120 minutes at room temperature with 10 μm substrate in incubation buffer (40 mM Citrate buffer pH 5.0, 0.04% PEG, 4% DMSO) in the absence or presence of compound. Next the amount of proteolysis is directly measured by fluorescence measurement at T=0 and T=120 (excitation at 320 nm and emission at 405 nm). Results are expressed in RFU (Relative Fluorescence Units), as difference between T120 and T0.
(§2) A best-fit curve is fitted by a minimum sum of squares method to the plot of % Controlmin versus compound concentration. From this an IC50 value (inhibitory concentration causing 50% inhibition of activity) can be obtained.

The subject of assay [2] is Abeta 1-42 produced and secreted into the medium of human neuroblastoma SKNBE2 cells. The assay is described as follows: Cellular αLisa assay in SKNBE2 cells, Abeta 42. Type of assay: cell-based. The settings on record: SKNBE2 cells expressing hAPP695, incubated for 18 hours; for IC50: Homo sapiens, SKNBE2, 18 h, read-out: Cellular αLisa assay in SKNBE2 cells Abeta 42 pIC50 (converted). Here is the method: In two αLisa assays the levels of Abeta 1-42 produced and secreted into the medium of human neuroblastoma SKNBE2 cells are quantified. The assay is based on the human neuroblastoma SKNBE2 expressing the wild type Amyloid Precursor Protein (hAPP695). The compounds are diluted and added to these cells, incubated for 18 hours and then measurements of Abeta 1-42 are taken. Abeta 1-42 are measured by sandwich αLisa. αLisa is a sandwich assay using biotinylated antibody AbN/25 attached to streptavidin coated beads and antibody cAb42/26 conjugated acceptor beads for the detection of Abeta 1-42 respectively. In the presence of Abeta 1-42, the beads come into close proximity. The excitation of the donor beads provokes the release of singlet oxygen molecules that trigger a cascade of energy transfer in the acceptor beads, resulting in light emission. Light emission is measured after 1 hour incubation (excitation at […] and emission at 615 nm).
as §2

Assay [3] has as its system Abetatotal in human neuroblastoma SKNBE2 cells. In words: Cellular αLisa assay in SKNBE2 cells, Abetatotal. The class given is cell-based. The settings on record: SKNBE2 cells expressing hAPP695, incubated for 18 hours; for IC50: Homo sapiens, SKNBE2, 18 h, read-out: Cellular αLisa assay in SKNBE2 cells Abetatotal pIC50 (converted).
Assay [4] has as its target T2, recombinant BACE2 protein (Homo sapiens, UniProt Q9Y5Z0).
T2 construct: recombinant BACE2 protein in a final concentration of 0.4 μg/ml
T2 sequence (Q9Y5Z0 63-518): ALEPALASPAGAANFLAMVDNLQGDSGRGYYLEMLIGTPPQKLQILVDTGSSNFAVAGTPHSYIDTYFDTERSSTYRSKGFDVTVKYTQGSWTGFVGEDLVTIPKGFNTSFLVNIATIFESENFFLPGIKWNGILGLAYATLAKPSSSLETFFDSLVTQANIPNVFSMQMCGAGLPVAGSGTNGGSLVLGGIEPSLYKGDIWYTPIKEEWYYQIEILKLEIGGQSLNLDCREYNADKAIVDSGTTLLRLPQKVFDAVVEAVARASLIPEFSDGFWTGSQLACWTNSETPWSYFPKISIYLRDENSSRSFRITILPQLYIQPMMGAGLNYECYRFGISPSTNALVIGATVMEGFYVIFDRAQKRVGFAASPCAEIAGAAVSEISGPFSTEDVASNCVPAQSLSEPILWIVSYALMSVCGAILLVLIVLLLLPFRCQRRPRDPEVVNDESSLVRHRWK
The assay is described as follows: BACE2 biochemical FRET based assay. The settings on record: BACE2, 450 minutes at room temperature, pH 5.0; read-out: Biochemical FRET based assay pIC50 (converted).
From the text: as §1, with “assay” for “assay is an APP derived 13 amino acids peptide that”, “the beta-secretase,” for “BACE1,”
Briefly in a 384-well format recombinant BACE2 protein in a final concentration of 0.4 μg/ml is incubated for 450 minutes at room temperature with 10 μM substrate in incubation buffer (50 mM Citrate buffer pH 5.0, 0.05% PEG, no DMSO) in the absence or presence of compound. Next the amount of proteolysis is directly measured by fluorescence measurement at T=0 and T=450 (excitation at 320 nm and emission at 405 nm). Results are expressed in RFU (Relative Fluorescence Units), as difference between T450 and T0.
as §2

Assay [5] concerns Abeta 1-37, Abeta 1-38, Abeta 1-40 and Abeta 1-42 in CSF. In words: Pharmacology in the Beagle dog: beta-amyloid profile in cerebrospinal fluid (CSF) after a single dose. The class given is in vivo. Here is the method: Test compounds were tested to evaluate the effect on the beta-amyloid profile in cerebrospinal fluid (CSF) of dogs after a single dose, in combination with pharmacokinetic (PK) follow up and limited safety evaluation.
For each of compound 20, 21, 22 or 41, four beagle dogs (2 males, 2 females) were dosed with vehicle (1 ml/kg of an aqueous solution of 20% cyclodextrin) and 12 beagle dogs (2 males and 2 females per dosage group) were dosed with test compounds as follows:
In the case of compounds 39, 33 and 31, two beagle dogs (1 male, 1 female) were dosed with vehicle (1 ml/kg of an aqueous solution of 20% cyclodextrin) and 4 beagle dogs (2 males and 2 females) were dosed with test compound […] (0.31 mg/kg in 0.31 mg/ml of an aqueous 20% cyclodextrin solution) on an empty stomach.
Eight hours after dosing the animals got access to their regular meal for 30 minutes. Blood was taken for PK follow up (0.5, 1, 2, 4, 8, 25 and 49 hours) and serum samples for biochemistry were taken before and at 8 and 25 h after dosing. The CSF samples were used for measurement of Abeta 1-37, Abeta 1-38, Abeta 1-40 and Abeta 1-42.

Where [6] appears, read: Canis lupus familiaris, single dose 0.31 mg/kg, 8 h post dosing, read-out: % Decrease in Abeta 1-42 at 8 h post dosing compared to own baseline.
Setting [7] is: single dose 0.31 mg/kg, 25 h post dosing (b).
Setting [8] is: Canis lupus familiaris, single dose 0.08 mg/kg, 8 h post dosing, read-out: % Decrease in Abeta 1-42 at 8 h post dosing compared to own baseline.

The values that follow come from patent publication US20180334447A1, “2,3,4,5-TETRAHYDROPYRIDIN-6-AMINE DERIVATIVES” (JANSSEN PHARMACEUTICA NV, priority 2015, published 2018).

T1 sequence (P56817 46-501): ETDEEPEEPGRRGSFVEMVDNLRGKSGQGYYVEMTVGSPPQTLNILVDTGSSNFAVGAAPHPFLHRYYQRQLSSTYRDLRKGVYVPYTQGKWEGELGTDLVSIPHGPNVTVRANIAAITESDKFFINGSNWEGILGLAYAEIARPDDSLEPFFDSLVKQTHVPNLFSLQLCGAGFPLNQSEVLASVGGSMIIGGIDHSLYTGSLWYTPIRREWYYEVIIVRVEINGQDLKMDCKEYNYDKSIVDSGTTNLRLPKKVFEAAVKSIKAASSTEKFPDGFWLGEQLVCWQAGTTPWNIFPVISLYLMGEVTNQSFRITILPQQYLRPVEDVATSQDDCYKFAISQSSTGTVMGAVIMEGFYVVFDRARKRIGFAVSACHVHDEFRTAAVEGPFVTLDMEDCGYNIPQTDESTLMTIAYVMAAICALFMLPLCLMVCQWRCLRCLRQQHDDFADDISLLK

`CC(C)S(=O)(=O)C1(C)CCC(CF)(c2cc(NC(=O)c3ccc(F)cn3)ccc2F)N=C1N` (single isomer, unassigned) [Compound 34]: the figures for the IC50 in assay [1] and in assay [4] were 3630 nM and 4270 nM, respectively. In assay [2], the “Cellular αLisa assay in SKNBE2 cells Abeta 42 pIC50” value is reported as 5.56. Also, in assay [3], the “Cellular αLisa assay in SKNBE2 cells Abetatotal pIC50” value was 5.72.

As to `CC1(S(C)(=O)=O)CCC(CF)(c2cc(NC(=O)c3cnc(OCC(F)(F)F)cn3)ccc2F)N=C1N` (stereo not drawn) [Compound 39], the IC50 in assay [1] was 1.29 nM; in assay [2], 1.38 nM; in assay [3] it was 2.14 nM; in assay [4], 25.1 nM. In addition, in assay [5] (setting [6]), the inhibition in vivo at 0.31 mg/kg was 53%. In addition, in assay [5] (setting [7]), the “% Decrease in Abeta 1-42 at 24 h^(a) or 25 h^(b) post dosing compared to own baseline” value was 44^(b) %.

With `C[C@@]1(c2cc(NC(=O)c3ccc(F)cn3)ccc2F)CC[C@@](CF)(S(C)(=O)=O)C(N)=N1` [Compound 26], the IC50 is 14.8 nM in assay [1], 5.25 nM in assay [2], 4.07 nM in assay [3] and 11 nM in assay [4].

In the case of `COc1cnc(C(=O)Nc2ccc(F)c([C@@]3(C)N=C(N)[C@@](C)(C#N)C[C@]3(C)F)c2)cn1` [Compound 28], the IC50 in assay [1] was 1150 nM; in assay [2], 550 nM; in assay [3], 501 nM; in assay [4], over 10000 nM.

Consider `CCS(=O)(=O)C1(C)CCC(CF)(c2cc(NC(=O)c3ccc(F)cn3)ccc2F)N=C1N` (stereo not drawn) [Compound 31], for which the IC50 was 1.7 nM in assay [1], 1.91 nM in assay [2], 1.78 nM in assay [3] and 2.63 nM in assay [4]. Also, the inhibition in vivo at 0.31 mg/kg in assay [5] (setting [6]) was 31%.

With `CC1(S(C)(=O)=O)CCC(CF)(c2cc(NC(=O)c3ncc(OC(F)F)cn3)ccc2F)N=C1N` (stereo not drawn) [Compound 36], the IC50 in assay [1] is 4.27 nM; in assay [2], 4.37 nM; in assay [3], 4.37 nM; in assay [4], 28.2 nM.

On to `COc1cnc(C(=O)Nc2ccc(F)c([C@@]3(C)N=C(N)[C@](C)(C#N)C[C@]3(C)F)c2)cn1` [Compound 27], for which the IC50 was 41.7 nM in assay [1], 17.4 nM in assay [2], 16.2 nM in assay [3] and 389 nM in assay [4].

For the compound `CC1(S(C)(=O)=O)CCC(CF)(c2cc(NC(=O)c3ccc(C#N)cn3)ccc2F)N=C1N` (stereo not drawn) [Compound 22], the IC50 in assay [1] is 1.12 nM; in assay [2], 1.15 nM; in assay [4] it was 5.25 nM. Besides, the inhibition in vivo at 0.08 mg/kg in assay [5] (setting [8]) turned out to be 50%. For the same compound, the inhibition in vivo at 0.31 mg/kg in assay [5] (setting [6]) was 78%. Further, the “% Decrease in Abeta 1-42 at 24 h^(a) or 25 h^(b) post dosing compared to own baseline” value in assay [5] (single dose 0.08 mg/kg, 24 h post dosing (a)) is reported as 54^(a) %. In assay [5] (single dose 0.31 mg/kg), the “% Decrease in Abeta 1-42 at 49 h post dosing compared to own baseline” value is 71%.

Consider `CC[C@]1(S(C)(=O)=O)CC[C@@](CF)(c2cc(NC(=O)c3ccc(F)cn3)ccc2F)N=C1N` [Compound 29a], for which the IC50 in assay [1] is 871 nM; in assay [2] it was 851 nM; in assay [3], 182 nM; in assay [4], 776 nM.

As to `Cc1cc(C#N)cnc1C(=O)Nc1ccc(F)c([C@]2(CF)CC[C@@](C)(S(C)(=O)=O)C(N)=N2)c1` [Compound 21], the IC50 is 1.38 nM in assay [1], 0.813 nM in assay [2] and 5.01 nM in assay [4]. Moreover, the inhibition in vivo at 0.08 mg/kg in assay [5] (setting [8]) was determined as 49%. In assay [5] (setting [6]), the inhibition in vivo at 0.31 mg/kg turned out to be 78%. For the same compound, in assay [5] (Canis lupus familiaris, single dose 0.63 mg/kg, 8 h post dosing, read-out: % Decrease in Abeta 1-42 at 8 h post dosing compared to own baseline), the inhibition in vivo at 0.63 mg/kg was determined as 70%. Further, in assay [5] (setting [7]), the “% Decrease in Abeta 1-42 at 24 h^(a) or 25 h^(b) post dosing compared to own baseline” value is given as 69^(b) %.

As to `CCC1(S(=O)(=O)CC)CCC(CF)(c2cc(NC(=O)c3ccc(F)cn3)ccc2F)N=C1N` (stereo not drawn) [Compound 30], the IC50 in assay [1] is 15.8 nM; in assay [2], 15.8 nM; in assay [3], 13.5 nM; in assay [4], 24.5 nM.

Turning to `C[C@@]1(S(C)(=O)=O)CC[C@@](CF)(c2cc(NC(=O)c3cnc(OCF)cn3)ccc2F)N=C1N` [Compound 41], the IC50 in assay [1] was 2.19 nM; in assay [2] it was 1.62 nM; in assay [4], 16.6 nM. Besides, in assay [5] (Canis lupus familiaris, single dose 0.16 mg/kg, 8 h post dosing, read-out: % Decrease in Abeta 1-42 at 8 h post dosing compared to own baseline), the inhibition in vivo at 0.16 mg/kg turned out to be 71%. In assay [5] (setting [6]), the inhibition in vivo at 0.31 mg/kg came to 78%. The inhibition in vivo at 1.25 mg/kg in assay [5] (Canis lupus familiaris, single dose 1.25 mg/kg, 8 h post dosing, read-out: % Decrease in Abeta 1-42 at 8 h post dosing compared to own baseline) came to 89%. Besides, the “% Decrease in Abeta 1-42 at 24 h^(a) or 25 h^(b) post dosing compared to own baseline” value is reported as 26^(b) % in assay [5] (single dose 0.16 mg/kg, 25 h post dosing (b)) and 49^(b) % in assay [5] (setting [7]). Further, in assay [5] (single dose 1.25 mg/kg), the “% Decrease in Abeta 1-42 at 49 h post dosing compared to own baseline” value was determined as 41%.

As for `CC1(S(C)(=O)=O)CCC(CF)(c2cc(NC(=O)c3cnc(OCC(F)F)cn3)ccc2F)N=C1N` (stereo not drawn) [Compound 35], the IC50 in assay [1] is 3.72 nM; in assay [2] it was 3.09 nM; in assay [3], 2.82 nM; in assay [4], 44.7 nM.

For `COc1cnc(C(=O)Nc2ccc(F)c([C@@]3(C)N=C(N)[C@@](C)(S(C)(=O)=O)C[C@@H]3F)c2)cn1` [Compound 18], the IC50 was 5750 nM in assay [1], 3550 nM in assay [2] and over 10000 nM in assay [4].
